Assay results published in ChEMBL document CHEMBL5241074, “Dual-target compounds for Alzheimer's disease: Natural and synthetic AChE and BACE-1 dual-inhibitors and their structure-activity relationship (SAR)” (Eur J Med Chem, 2021).

Tests used:
Beta-secretase 1 [1] = target: T1, Beta-secretase 1 (Homo sapiens, UniProt P56817); experiment: Inhibition of BACE1 (unknown origin)
Acetylcholinesterase [2] = target: T2, Acetylcholinesterase (Homo sapiens, UniProt P22303); experiment: Inhibition of AChE (unknown origin)
Acetylcholinesterase [3] = target: T2, Acetylcholinesterase; experiment: Inhibition of AChE (unknown origin) at 100 uM relative to control
Beta-secretase 1 [4] = target: T1, Beta-secretase 1; experiment: Inhibition of BACE1 (unknown origin) at 100 uM relative to control
Beta-secretase 1 [5] = target: T1, Beta-secretase 1; experiment: Inhibition of BACE1 (unknown origin) at 5 uM relative to control
Beta-secretase 1 [6] = target: T1, Beta-secretase 1; experiment: Inhibition of BACE1 (unknown origin) at 2.5 uM relative to control

T1 sequence (P56817 whole entry): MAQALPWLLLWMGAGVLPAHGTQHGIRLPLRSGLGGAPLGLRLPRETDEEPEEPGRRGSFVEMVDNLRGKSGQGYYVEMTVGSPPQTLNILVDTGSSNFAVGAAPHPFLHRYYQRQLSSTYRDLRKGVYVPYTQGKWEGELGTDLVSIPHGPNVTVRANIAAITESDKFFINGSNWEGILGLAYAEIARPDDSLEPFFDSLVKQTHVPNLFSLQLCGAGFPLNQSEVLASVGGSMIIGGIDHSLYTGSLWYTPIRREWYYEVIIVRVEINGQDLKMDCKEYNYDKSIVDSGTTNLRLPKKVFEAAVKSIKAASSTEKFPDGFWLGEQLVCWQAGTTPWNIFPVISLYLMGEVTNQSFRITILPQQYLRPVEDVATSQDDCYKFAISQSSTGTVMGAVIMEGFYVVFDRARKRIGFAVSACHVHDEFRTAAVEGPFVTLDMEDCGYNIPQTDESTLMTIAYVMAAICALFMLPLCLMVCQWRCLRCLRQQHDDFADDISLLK
T2 sequence (P22303 whole entry): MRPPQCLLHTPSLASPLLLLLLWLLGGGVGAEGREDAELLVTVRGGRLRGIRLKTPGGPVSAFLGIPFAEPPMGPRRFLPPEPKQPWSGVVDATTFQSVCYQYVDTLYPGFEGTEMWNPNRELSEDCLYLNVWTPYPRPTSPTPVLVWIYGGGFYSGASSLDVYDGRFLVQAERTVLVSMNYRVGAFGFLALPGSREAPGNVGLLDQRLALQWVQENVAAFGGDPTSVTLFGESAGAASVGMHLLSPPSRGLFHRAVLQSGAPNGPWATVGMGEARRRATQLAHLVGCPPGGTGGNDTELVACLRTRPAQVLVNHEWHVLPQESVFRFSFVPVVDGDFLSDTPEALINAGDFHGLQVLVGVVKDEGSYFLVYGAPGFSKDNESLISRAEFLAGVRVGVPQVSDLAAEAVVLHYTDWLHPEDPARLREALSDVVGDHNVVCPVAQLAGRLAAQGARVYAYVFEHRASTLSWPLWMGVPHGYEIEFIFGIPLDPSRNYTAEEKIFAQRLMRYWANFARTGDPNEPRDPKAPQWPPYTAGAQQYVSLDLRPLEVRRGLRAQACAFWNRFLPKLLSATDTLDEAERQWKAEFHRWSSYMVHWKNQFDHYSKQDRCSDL

COc1ccc(NC(=O)C2CCN(C(=O)c3ccccc3)CC2)cc1
IC50 (Beta-secretase 1 [1]): 19.1 nM | IC50 (Acetylcholinesterase [2]): 9.78 nM

CC(C)=CCc1c(O)ccc(C(=O)/C=C/c2ccc(O)cc2)c1O
inhibition (Acetylcholinesterase [3]): 83% | inhibition (Beta-secretase 1 [4]): 34%

O=C(/C=C/c1ccc(O)c(O)c1)O[C@@H]1[C@H](O)C[C@@](O)(C(=O)O)C[C@H]1OC(=O)/C=C/c1ccc(O)c(O)c1
IC50 (Beta-secretase 1 [1]): 3310 nM | IC50 (Acetylcholinesterase [2]): 2140 nM

C/C(=C\C1=CCN(C(=O)CCc2ccccc2)C(=O)C1)N1C(=O)c2ccccc2C1=O
IC50 (Beta-secretase 1 [1]): 2.07 nM | IC50 (Acetylcholinesterase [2]): 55.3 nM

CCC1=CC2Cc3nc4cc(Cl)ccc4c(NCCCN4CCC(CC5Cc6cc(OC)c(OC)cc6C5)CC4)c3C(C1)C2 (stereo in doubt; (-)-36b) [listing 1 of 2 here]
inhibition (Beta-secretase 1 [5]): 14.9%

COc1cc2c(cc1OC)CC(CC1CCN(CCNc3c4c(nc5cc(Cl)ccc35)CC3C=C(C)CC4C3)CC1)C2 (stereo not given)
inhibition (Beta-secretase 1 [5]): 24.6% | IC50 (Acetylcholinesterase [2]): 13 nM

COc1ccc(-c2oc3cc(OC)c(I)cc3c(=O)c2O)cc1
IC50 (Beta-secretase 1 [1]): 22.4 nM | IC50 (Acetylcholinesterase [2]): 7.19 nM

COc1cc(O)cc(-c2cc3ccc(O)c(C/C=C(\C)CCC=C(C)C)c3o2)c1CC=C(C)C
IC50 (Acetylcholinesterase [2]): > 200000 nM

COc1ccc(-c2cc3cc4c(=O)c(/C=N/Nc5ccc(C(F)(F)F)cc5)coc4cc3o2)cc1
IC50 (Beta-secretase 1 [1]): 25300 nM | IC50 (Acetylcholinesterase [2]): 5400 nM

O=c1c(/C=N/Nc2ccc(C(F)(F)F)cc2)coc2c1ccc1oc(-c3cccc(F)c3)cc12
IC50 (Beta-secretase 1 [1]): 15800 nM | IC50 (Acetylcholinesterase [2]): 10400 nM

O=c1c(O)c(-c2ccc(Cl)cc2)oc2cc(F)c(I)cc12
IC50 (Beta-secretase 1 [1]): 16.7 nM | IC50 (Acetylcholinesterase [2]): 3.45 nM

CC(C)=CCCC1(C)C=Cc2c(ccc3cc(-c4cc(O)cc(O)c4CC=C(C)C)oc23)O1 (stereo not given)
IC50 (Acetylcholinesterase [2]): 4610 nM

Cc1cccc(C(=O)N2Cc3ccc(N4C(=O)c5ccccc5C4=O)cc3CC2=O)c1
IC50 (Beta-secretase 1 [1]): 4.45 nM | IC50 (Acetylcholinesterase [2]): 25.5 nM

O=c1c(/C=N/Nc2ccc(C(F)(F)F)cc2)coc2cc3oc(-c4cccc(Cl)c4)cc3cc12
IC50 (Beta-secretase 1 [1]): 32800 nM | IC50 (Acetylcholinesterase [2]): 18300 nM

COc1cc2c(cc1OC)CC(CC1CCN(CCCNc3c4c(nc5cc(Cl)ccc35)CC3C=C(C)CC4C3)CC1)C2 (single isomer, unassigned; (-)) [listing 1 of 2 here]
inhibition (Beta-secretase 1 [5]): 30.8%

CC(C)=CCc1cc2c(cc1O)O[C@H](c1ccc(O)cc1)CC2=O
inhibition (Acetylcholinesterase [3]): 34% | inhibition (Beta-secretase 1 [4]): 14%

COc1ccccc1C(=O)N1Cc2ccc(N3C(=O)c4ccccc4C3=O)cc2CC1=O
IC50 (Beta-secretase 1 [1]): 2.96 nM | IC50 (Acetylcholinesterase [2]): 81.7 nM

COc1cc(O)c(C(=O)/C=C/c2ccc(F)cc2)cc1I
IC50 (Beta-secretase 1 [1]): 25.1 nM | IC50 (Acetylcholinesterase [2]): 9.38 nM

O=c1c(O)c(-c2ccc(F)cc2)oc2cc(F)c(I)cc12
IC50 (Beta-secretase 1 [1]): 32.2 nM | IC50 (Acetylcholinesterase [2]): 3.23 nM

COc1cc(/C=C/c2nnc(-c3ccc(OC(F)(F)F)cc3)o2)ccc1O
IC50 (Beta-secretase 1 [1]): 0.211 nM | IC50 (Acetylcholinesterase [2]): 0.092 nM

COc1cc(/C=C/c2nnc(-c3ccc(F)cc3)o2)ccc1O
IC50 (Beta-secretase 1 [1]): 0.479 nM | IC50 (Acetylcholinesterase [2]): 0.284 nM

COc1cc(/C=C/c2nnc(-c3ccc(Cl)cc3)o2)ccc1O
IC50 (Beta-secretase 1 [1]): 0.628 nM | IC50 (Acetylcholinesterase [2]): 0.334 nM

COc1ccc(NCC2CCN(Cc3ccccc3)CC2)cc1OC
IC50 (Beta-secretase 1 [1]): 243 nM | IC50 (Acetylcholinesterase [2]): 145 nM

O=C(CCc1ccc2nc(-c3ccccc3)c3c(c2c1)OCCC3)NCCCCCCCNc1c2c(nc3cc(Cl)ccc13)CCCC2
inhibition (Beta-secretase 1 [6]): 34.4% | IC50 (Acetylcholinesterase [2]): 11.4 nM

CCC1=CC2Cc3nc4cc(Cl)ccc4c(NCCCN4CCC(CC5Cc6cc(OC)c(OC)cc6C5)CC4)c3C(C1)C2 (stereo in doubt; (-)-36b) [listing 2 of 2 here]
IC50 (Acetylcholinesterase [2]): 3.85 nM

O=C(NCCCCCCCNc1c2c(nc3cc(Cl)ccc13)CCCC2)c1ccc2nc(-c3ccc(Cl)cc3)c3c(c2c1)OCCC3
inhibition (Beta-secretase 1 [6]): 14.5%

Cc1cc2c(c(C)c1CCO[C@@H]1O[C@H](CO)[C@@H](O)[C@H](O)[C@H]1O)C(=O)[C@H](C)[C@H]2O
IC50 (Beta-secretase 1 [1]): 9740 nM | IC50 (Acetylcholinesterase [2]): 3770 nM

COc1ccc(NCC2CCN(Cc3ccccc3)CC2)cc1
IC50 (Beta-secretase 1 [1]): 253 nM | IC50 (Acetylcholinesterase [2]): 165 nM

O=c1c(/C=N/Nc2ccc(C(F)(F)F)cc2)coc2cc3oc(-c4cccc(F)c4)cc3cc12
IC50 (Beta-secretase 1 [1]): 17300 nM | IC50 (Acetylcholinesterase [2]): 7600 nM

O=C(CCc1ccc2nc(-c3ccccc3)c3c(c2c1)OCCC3)NCCCCCCNc1c2c(nc3cc(Cl)ccc13)CCCC2
inhibition (Beta-secretase 1 [6]): 19.6%

COc1cc(/C=C/c2nnc(-c3ccc(C(F)(F)F)cc3)o2)ccc1O
IC50 (Beta-secretase 1 [1]): 0.255 nM | IC50 (Acetylcholinesterase [2]): 0.068 nM

O=c1c(O)c(-c2ccc(O)c(O)c2)oc2cc(O)cc(O)c12 [QUERCETIN]
IC50 (Acetylcholinesterase [2]): 2910 nM

O=C(/C=C/c1ccc(F)cc1)c1cc(I)c(Br)cc1O
IC50 (Beta-secretase 1 [1]): 4.7 nM | IC50 (Acetylcholinesterase [2]): 11 nM

COc1cc(/C=C/c2nnc(-c3ccc(F)cc3F)o2)ccc1O
IC50 (Beta-secretase 1 [1]): 0.624 nM | IC50 (Acetylcholinesterase [2]): 0.19 nM

Cc1cc2c(c(C)c1CCO[C@@H]1O[C@H](CO)[C@@H](O)[C@H](O)[C@H]1O)C(=O)[C@@H](C)[C@H]2O
IC50 (Acetylcholinesterase [2]): 9170 nM

COc1ccc(/C=C/C(=O)c2cc(I)c(OC)cc2O)cc1
IC50 (Beta-secretase 1 [1]): 70.8 nM | IC50 (Acetylcholinesterase [2]): 11 nM

COc1cc2c(cc1OC)CC(CC1CCN(CCCNc3c4c(nc5cc(Cl)ccc35)CC3C=C(C)CC4C3)CC1)C2 (racemic) [listing 1 of 2 here]
IC50 (Acetylcholinesterase [2]): 5.37 nM

C/C=C1/C(O[C@@H]2O[C@H](CO)[C@@H](O)[C@H](O)[C@H]2O)OC=C(C(=O)OC)C1CC(=O)OCCc1ccc(O)c(O)c1 (stereo not given in full)
IC50 (Beta-secretase 1 [1]): 2760 nM

Oc1cc(O)cc(Oc2c(O)cc(O)c3c2Oc2c(cc(O)c(-c4c(O)cc5c(c4O)Oc4c(Oc6cc(O)cc(O)c6)c(O)cc(O)c4O5)c2O)O3)c1
IC50 (Acetylcholinesterase [2]): 4590 nM

CC(C)=CCC/C(C)=C/Cc1c(O)ccc2cc(-c3cc(O)cc(O)c3CC=C(C)C)oc12 [MULBERROFURAN D]
IC50 (Beta-secretase 1 [1]): 3740 nM | IC50 (Acetylcholinesterase [2]): 23000 nM

COc1cc(/C=C/c2nnc(-c3ccc(Cl)cc3Cl)o2)ccc1O
IC50 (Beta-secretase 1 [1]): 0.864 nM | IC50 (Acetylcholinesterase [2]): 0.22 nM

COc1cc2c(cc1OC)CC(CC1CCN(CCCNc3c4c(nc5cc(Cl)ccc35)CC3C=C(C)CC4C3)CC1)C2 (single isomer, unassigned; (-)) [listing 2 of 2 here]
IC50 (Acetylcholinesterase [2]): 2.61 nM

O=C1Cc2cc(N3C(=O)c4ccccc4C3=O)ccc2CN1C(=O)c1ccccc1
IC50 (Beta-secretase 1 [1]): 5.87 nM | IC50 (Acetylcholinesterase [2]): 65.6 nM

COc1ccccc1NC(=O)C1CCN(C(=O)c2ccccc2)CC1
IC50 (Beta-secretase 1 [1]): 18.5 nM | IC50 (Acetylcholinesterase [2]): 8.46 nM

CCC1=CC2Cc3nc4cc(Cl)ccc4c(NCCCN4CCC(CC5Cc6cc(OC)c(OC)cc6C5)CC4)c3C(C1)C2 (racemic) [listing 1 of 2 here]
IC50 (Acetylcholinesterase [2]): 6.32 nM

CC12CC(c3c(O)cc(-c4cc5ccc(O)cc5o4)cc3O)CC3c4ccc(O)cc4OC31C2 (stereo not given)
IC50 (Beta-secretase 1 [1]): 1040 nM | IC50 (Acetylcholinesterase [2]): > 200000 nM

O=C(CCc1ccc2nc(-c3ccccc3)c3c(c2c1)OCCC3)NCCCCCCCCNc1c2c(nc3cc(Cl)ccc13)CCCC2
inhibition (Beta-secretase 1 [6]): 77.8%

C[C@@H]1O[C@@H](O[C@@H]2[C@@H](O)[C@H](OCCc3ccc(O)c(O)c3)O[C@H](CO)[C@H]2OC(=O)/C=C/c2ccc(O)c(O)c2)[C@H](O)[C@H](O)[C@H]1O [ACETOSIDE]
IC50 (Beta-secretase 1 [1]): 6.3 nM

COc1ccc(C(=O)N2Cc3ccc(N4C(=O)c5ccccc5C4=O)cc3CC2=O)cc1
IC50 (Beta-secretase 1 [1]): 1.69 nM | IC50 (Acetylcholinesterase [2]): 81.8 nM

CCC1=CC2Cc3nc4cc(Cl)ccc4c(NCCN4CCC(CC5Cc6cc(OC)c(OC)cc6C5)CC4)c3C(C1)C2 (single isomer, unassigned; (-))
inhibition (Beta-secretase 1 [5]): 12.5% | IC50 (Acetylcholinesterase [2]): 28.6 nM

O=C(NCCCCCCCCNc1c2c(nc3cc(Cl)ccc13)CCCC2)c1ccc2nc(-c3ccc(Cl)cc3)c3c(c2c1)OCCC3
inhibition (Beta-secretase 1 [6]): 18.5%

COc1ccc(/C=C/C(=O)c2cc(I)c(Cl)cc2O)cc1
IC50 (Beta-secretase 1 [1]): 13.8 nM | IC50 (Acetylcholinesterase [2]): 11.7 nM

OCCc1ccc(O)c(O)c1 [HYDROXYTYROSOL]
IC50 (Beta-secretase 1 [1]): 35 nM

CC(C)=CCC/C(C)=C/CC/C(C)=C\Cc1c(O)cc(O)c(CC=C(C)C)c1-c1cc2ccc(O)cc2o1
IC50 (Beta-secretase 1 [1]): 2030 nM | IC50 (Acetylcholinesterase [2]): 13900 nM

COc1cc2c(cc1OC)CC(CC1CCN(CCCNc3c4c(nc5cc(Cl)ccc35)CC3C=C(C)CC4C3)CC1)C2 (racemic) [listing 2 of 2 here]
inhibition (Beta-secretase 1 [5]): 29.1%

O=c1c(/C=N/Nc2ccc(C(F)(F)F)cc2)coc2c1ccc1oc(-c3ccc(Cl)cc3)cc12
IC50 (Beta-secretase 1 [1]): 13600 nM | IC50 (Acetylcholinesterase [2]): 5400 nM

COc1ccc(NC(=O)C2CCN(C(=O)c3ccccc3)CC2)cc1OC
IC50 (Beta-secretase 1 [1]): 18.3 nM | IC50 (Acetylcholinesterase [2]): 4.11 nM

C[C@@H]1O[C@@H](OC[C@H]2O[C@@H](Oc3c(-c4ccc(O)c(O)c4)oc4cc(O)cc(O)c4c3=O)[C@H](O)[C@@H](O)[C@@H]2O)[C@H](O)[C@H](O)[C@H]1O [RUTIN]
IC50 (Beta-secretase 1 [1]): 3.8 nM | IC50 (Acetylcholinesterase [2]): 113000 nM

Cc1cc2c(c(C)c1CCO[C@@H]1O[C@H](CO)[C@@H](O)[C@H](O)[C@H]1O)C(=O)C(C)(C)[C@H]2O
IC50 (Beta-secretase 1 [1]): 10700 nM | IC50 (Acetylcholinesterase [2]): 27400 nM

COc1ccc(-c2oc3cc(Br)c(I)cc3c(=O)c2O)cc1
IC50 (Beta-secretase 1 [1]): 15.7 nM

COc1ccccc1NCC1CCN(Cc2ccccc2)CC1
IC50 (Beta-secretase 1 [1]): 277 nM | IC50 (Acetylcholinesterase [2]): 157 nM

Cc1cc2c(c(C)c1CCO[C@@H]1O[C@H](CO)[C@@H](O)[C@H](O)[C@H]1O)C(=O)[C@H](C)C2
IC50 (Beta-secretase 1 [1]): 18000 nM | IC50 (Acetylcholinesterase [2]): 2550 nM

CCC1=CC2Cc3nc4cc(Cl)ccc4c(NCCCN4CCC(CC5Cc6cc(OC)c(OC)cc6C5)CC4)c3C(C1)C2 (racemic) [listing 2 of 2 here]
inhibition (Beta-secretase 1 [5]): 18%
